Laboratory results: patent publication EP4682149A1 (Prime Gene Therapeutics Co., Ltd., priority 2023, dated 2024)
pIC50: −log10 of the molar value. In brackets after ≈: the same amount, converted by molar mass.

How the values were obtained:
[1] = Solubility determination in buffer solutions (HPLC); format: physicochemical; conditions: for solubility: 37°C
Procedure: Appropriate amounts of Forms III, IV, and V were weighed and added to buffer solutions with pH 4.5 and 6.8 to prepare a suspension at 5 mg/mL. The resulting suspension was stirred at 37°C, and samples were collected and analyzed at 5, 30, 60, and 240 minutes. Use a syringe to draw approximate 1 mL of the suspension, filter it through a membrane filter, and dilute it several times before testing the resulting filtrate with HPLC, using the area normalization method to determine the solubility. Table 8 Tests of different crystal forms at various pH values

[2] = Stability investigation (HPLC purity at 220 nm and XRD); format: physicochemical; conditions: for chemical stability / crystal form change: 40°C/75%RH and 25°C/60%RH for 7 days
Procedure: The analysis method is as follows: Octadecylsilane bonded silica gel was used as the filler (Kromasil C 18 4.6 mm × 250 mm, 5 µm); 0.01 mol/L potassium dihydrogen phosphate solution (pH was adjusted to 3.0 with phosphoric acid) was used as mobile phase A, and methanol was used as mobile phase B. Gradient elution was performed according to the table below; the detection wavelength was 220 nm; the column temperature was 40°C; the flow rate was 1.0 ml/min; the injection volume was 10 µl, and the HPLC purity was calculated by the area normalization method.
Appropriate amounts of Form III, IV, and V were weighed in sample bottles and stored uncovered at 80°C, 40°C/75% RH, and 25°C/60% RH for 7 days. Samples were collected at 0, 1, 3, and 7 days for HPLC and XRD analysis. Table 7 Stability test results of Form III, IV and V

[3] = Competitive slurry test (XRD of the solid); format: physicochemical; conditions: for form transformation in competitive slurry: ethanol/water (1/1) (80°C), acetonitrile (70°C), acetonitrile/water (70°C)
Procedure: The relative stability of Form II and Form III was investigated by competitive slurry test. Approximately 5 mg of Form II and Form III were weighed, mixed, and then added in 1/1 ratio of methanol/n-heptane, ethanol and ethyl acetate, respectively, to prepare a suspension. The suspension was stirred at room temperature for several hours, then centrifuged and the solid was analyzed by XRD.
Competitive slurry studies were conducted to investigate the relative stability of Forms III, IV, and V. 5 mg of Forms III, IV, and V were weighed and mixed uniformly. Suspensions were prepared respectively in ethanol (80°C), ethanol/water (1/1) (80°C), water (60°C), water (25°C), acetonitrile (70°C), and acetonitrile/water (1/1) (70°C). The suspensions were stirred for 12 hours, and the solids were centrifuged and analyzed by XRD. Table 6: Competitive slurry results of Forms III, IV and V

[4] = Determination of bioavailability in adult SD rats; format: in vivo; conditions: Sprague-Dawley, rat, plasma, female SD rats
Procedure: Healthy adult female Sprague-Dawley rats were obtained from Beijing Weitong Lihua Laboratory Animal Technology Co., Ltd. The study was conducted in two phases: first, animals received a single intravenous injection of 1 mg/kg; second, one week later, the same group received a single oral gavage of the suspension at a dose of 10 mg/kg. Animals receiving oral gavage were fasted overnight and from 10 hours before to 4 hours after administration. Animals in the intravenous group were not restricted to food. Blood samples were collected at 0.083, 0.25, 0.5, 1, 2, 4, 6, 8, and 24 hours after administration for the intravenous group and at 0.25, 0.5, 1, 2, 4, 8, and 24 hours after administration for the oral group. After isoflurane anesthesia by using a small animal anesthesia machine, 0.4 ml of whole blood was obtained from the retinal venous plexus. The sample was centrifuged at 4000 rpm for 20 minutes at 4°C. Plasma was separated and placed in labeled EP tubes. Plasma samples were immediately stored in an ultra-low temperature freezer until analysis. Plasma samples should be stored in a refrigerator at -70°C before testing. Plasma samples were extracted using protein precipitation, and the extracts were analyzed by LC/MS/MS.

[5] = Pharmacokinetic (PK) determination in adult Beagle dogs; format: in vivo
Procedure: Healthy adult male Beagle dogs were obtained from Beijing Marshall Biotechnology Co., Ltd. Three groups were divided into this study and administered via oral gavage at a dose of 19.5 mg/kg. Animals receiving oral gavage were fasted overnight and from 10 hours before to 4 hours after administration. Blood samples were collected 15 minutes, 30 minutes, 45 minutes, 1 hour, 1.5 hours, 3 hours, 4 hours, 6 hours, 8 hours, and 24 hours after gavage. Blood samples (1 mL) were collected from the forelimb vein or other suitable venous sampling methods and placed in labeled EDTA-K2 anticoagulant tubes. After gentle inversion to thoroughly mix the anticoagulant with the blood, the tubes were immediately placed on wet ice. Plasma was separated by centrifugation within 1 hour of blood collection in the condition of 4°C, 2200g, and 10 minutes. The separated plasma was placed in labeled EP tubes. Plasma samples were immediately stored in an ultra-low temperature freezer until analysis. Plasma samples should be stored in a refrigerator at -70°C before testing. Plasma samples were extracted using protein precipitation, and the extracts were analyzed by LC/MS/MS.

JAK1/2/3 = assay: Enzymatic activity (IC50) test, Lance Ultra TR-FRET; conditions: JAK1/2/3 kinase platform; kinase not given
[6] = male Beagle dogs, oral gavage 19.5 mg/kg
[7] = male Beagle dogs, oral gavage 19.5 mg/kg, 19.5 mg/kg

| SMILES | solubility ([1]; PH=4.5 buffer, 5 min) [µg/mL] | solubility ([1]; PH=4.5 buffer, 30 min) [µg/mL] | solubility ([1]; PH=4.5 buffer, 60 min) [µg/mL] | solubility ([1]; PH=4.5 buffer, 240 min) [µg/mL] | solubility ([1]; pH=6.8 buffer, 5 min) [µg/mL] | solubility ([1]; pH=6.8 buffer, 30 min) [µg/mL] | solubility ([1]; pH=6.8 buffer, 60 min) [µg/mL] | solubility ([1]; pH=6.8 buffer, 240 min) [µg/mL] | 220nm (HPLC purity) ([2]; 0 days) [%] | 220nm (HPLC purity) ([2]; 25°C/60%RH, 3 days, uncovered) [%] | 220nm (HPLC purity) ([2]; 25°C/60%RH, 7 days, uncovered) [%] | 220nm (HPLC purity) ([2]; 40°C/75%RH, 3 days, uncovered) [%] | 220nm (HPLC purity) ([2]; 40°C/75%RH, 7 days, uncovered) [%] | chemical stability ([2]; 80°C) | crystal form change ([2]; 80°C) | 220nm (HPLC purity) ([2]; 80°C, 1 day, uncovered) [%] | 220nm (HPLC purity) ([2]; 80°C, 3 days, uncovered) [%] | 220nm (HPLC purity) ([2]; 80°C, 7 days, uncovered) [%] | AUC 0-inf [5, 7] [ng·h/mL] | AUC 0-t [5, 7] [ng·h/mL] | other results |
| --- | --- | --- | --- | --- | --- | --- | --- | --- | --- | --- | --- | --- | --- | --- | --- | --- | --- | --- | --- | --- | --- |
| N#CCC1(n2cc(-c3ncnc4[nH]ccc34)c(N)n2)CN(C2CCN(C(=O)c3ccnc(C(F)(F)F)c3F)CC2)C1 [listing 1 of 3 here] | 47.1 (≈ 82.8 µM) | 65.6 (≈ 115 µM) | 70 (≈ 123 µM) | 73.4 (≈ 129 µM) | 24.7 (≈ 43.4 µM) | 37.2 (≈ 65.4 µM) | 40.2 (≈ 70.7 µM) | 40.2 (≈ 70.7 µM) | 99.57 | 99.59 | 99.63 | 99.53 | 99.63 | relatively stable | did not change | 99.57 | 99.60 | 99.57 | 27789 | 27750 | solubility relative to Form V ([1]; pH = 4.5 (postprandial gastric juice), 240 min): twice that of Form V; solubility relative to Form V ([1]; pH = 6.8 (simulated intestinal fluid), 240 min): twice that of Form V; relative stability of the forms ([3]; conclusion from competitive slurry of Forms III, IV, V): the most stable of the five forms; AUC 0-inf ([4]; IV (1 mg/kg)): 456 ng·h/mL; half-life ([4]; IV (1 mg/kg)): 0.61 h; clearance ([4]; IV (1 mg/kg), read-out: Cl s,app): 37.7 mL/min/kg; Vd ([4]; IV (1 mg/kg), read-out: VZ): 1.5 L/kg; bioavailability ([4]; PO (10 mg/kg) vs IV (1 mg/kg)): 17%; AUC 0-inf ([4]; PO (10 mg/kg), suspension): 783 ng·h/mL; Cmax ([4]; PO (10 mg/kg), suspension): 475 ng/mL; Tmax ([4]; PO (10 mg/kg), suspension): 0.5 h; half-life ([4]; PO (10 mg/kg), suspension): 1.9 h; pharmacokinetic properties after PO administration ([5]; comparison of the crystal forms): better pharmacokinetic properties; Tmax [5, 6]: 1.00 h; C max [5, 7]: 6197 ng/mL; t 1/2 [5, 7]: 2.63 h |
| N#CCC1(n2cc(-c3ncnc4[nH]ccc34)cn2)CN(C2CCN(C(=O)c3ccnc(C(F)(F)F)c3F)CC2)C1 [Itacitinib, reference compound] | – | – | – | – | – | – | – | – | – | – | – | – | – | – | – | – | – | – | – | – | pIC50 (JAK1/2/3): > 8.00 |
| N#CCC1(n2cc(-c3ncnc4[nH]ccc34)c(N)n2)CN(C2CCN(Cc3ccnc(C(F)(F)F)c3F)CC2)C1 [compound of formula I (amorphous form), 2-(3-(3-amino-4-(7H-pyrrolo[2,3-d]pyrimidin-4-yl)-1H-pyrazol-1-yl)-1-(1-(3-fluoro-2-(trifluoromethyl)isonicotinyl)piperidin-4-yl)azetidin-3-yl)acetonitrile] | – | – | – | – | – | – | – | – | – | – | – | – | – | – | – | – | – | – | – | – | pIC50 (JAK1/2/3): > 8.00 |
| N#CCC1(n2cc(-c3ncnc4[nH]ccc34)c(N)n2)CN(C2CCN(C(=O)c3ccnc(C(F)(F)F)c3F)CC2)C1 [listing 2 of 3 here] | 41.3 (≈ 72.6 µM) | 60.1 (≈ 106 µM) | 65.5 (≈ 115 µM) | 84 (≈ 148 µM) | 11.2 (≈ 19.7 µM) | 29.9 (≈ 52.6 µM) | 33.2 (≈ 58.4 µM) | 41.5 (≈ 73 µM) | 99.83 | 99.90 | 99.95 | 99.89 | 99.90 | relatively stable | did not change | 99.90 | 99.89 | 99.91 | 13248 | 13174 | relative stability of Form II and Form III ([3]; Form II and Form III mixed, methanol/n-heptane 1/1, ethanol, ethyl acetate, room temperature, several hours, XRD): more stable than Form II; form transformation in competitive slurry [3]: transformed into Form IV; Tmax ([5]; dog, plasma, male Beagle dogs, oral gavage 19.5 mg/kg, read-out: Tmax): 1 h; C max [5, 7]: 4057 ng/mL; half-life ([5]; male, beagle, dog, plasma, po, 19.5 mg/kg, male Beagle dogs, oral gavage 19.5 mg/kg): 2.45 h |
| N#CCC1(n2cc(-c3ncnc4[nH]ccc34)c(N)n2)CN(C2CCN(C(=O)c3ccnc(C(F)(F)F)c3F)CC2)C1 [listing 3 of 3 here] | 11.2 (≈ 19.7 µM) | 25.8 (≈ 45.4 µM) | 28.9 (≈ 50.8 µM) | 35.6 (≈ 62.6 µM) | 7.6 (≈ 13.4 µM) | 13.3 (≈ 23.4 µM) | 16 (≈ 28.1 µM) | 19 (≈ 33.4 µM) | 98.02 | 98.10 | 97.87 | 98.02 | 98.01 | relatively stable | did not change | 98.05 | 98.03 | 98.02 | 8431 | 8354 | form transformation in competitive slurry [3]: transformed into Form IV; Tmax [5, 6]: 1.00 h; C max [5, 7]: 2440 ng/mL; t 1/2 [5, 7]: 2.86 h |
